In ChEMBL document CHEMBL4266049, “A Steroid-Type Antioxidant Targeting the Keap1/Nrf2/ARE Signaling Pathway from the Soft Coral Dendronephthya gigantea” (J Nat Prod, 2018):
Calls of active or inactive are those of the source. The rule behind the calls is not given here.

Tests used:
PC-12 [1] = test: Cytoprotective activity against H2O2-induced oxidative injury in rat PC12 cells assessed as […] in cell viability at 10 uM pretreated for 24 hrs followed by 500 uM H2O2 challenge measured after 24 hrs by MTT assay; format: functional, cell-based
PC-12 [2] = test: Cytoprotective activity against H2O2-induced oxidative injury in rat PC12 cells assessed as increase in colony formation at 5 uM pretreated for 24 hrs followed by H2O2 challenge by crystal violet staining based assay; format: functional, cell-based
PC-12 [3] = test: Cytoprotective activity against H2O2-induced oxidative injury in rat PC12 cells assessed as inhibition of MDA production at 10 uM pretreated for 24 hrs followed by H2O2 challenge measured after 16 hrs; format: functional, cell-based
PC-12 [4] = test: Cytoprotective activity against H2O2-induced oxidative injury in rat PC12 cells assessed as reduction in intracellular reactive oxygen species formation at 10 uM pretreated for 24 hrs followed by H2O2 challenge measured after 3 hrs by DCFH-DA dye based fluorescence microscopic analysis; format: functional, cell-based
[5] = biological target: T1, KEAP1/NRF2 (Rattus norvegicus) (UniProt O54968+P57790); test: Inhibition of Keap1/Nrf2 signaling in rat PC12 cells assessed as induction of ARE by measuring increase in HO-1 expression at 10 uM after 24 hrs by Western blot analysis; format: cell-based
PC-12 [6] = test: Cytoprotective activity against H2O2-induced oxidative injury in rat PC12 cells assessed as […] in cell viability at 10 uM pretreated for 24 hrs followed by 350 uM H2O2 challenge measured after 24 hrs by MTT assay; format: functional, cell-based
PC-12 [7] = test: Cytotoxicity against rat PC12 cells assessed as reduction in cell viability at 10 uM after 24 hrs by MTT assay; format: cell-based; conditions: pc-12, 24 h
PC-12 [8] = test: Cytoprotective activity against H2O2-induced oxidative injury in rat PC12 cells assessed as cell viability at 10 uM pretreated for 24 hrs followed by 350 uM H2O2 challenge measured after 24 hrs by MTT assay (reference value: 60%); format: functional
PC-12 [9] = test: Cytoprotective activity against H2O2-induced oxidative injury in rat PC12 cells assessed as increase in colony formation at 1 to 2 uM pretreated for 24 hrs followed by H2O2 challenge by crystal violet staining based assay; format: functional, cell-based
PC-12 [10] = test: Cytoprotective activity against H2O2-induced oxidative injury in rat PC12 cells assessed as decrease in LDH release after 24 hrs; format: functional, cell-based
PC-12 [11] = test: Cytoprotective activity against H2O2-induced oxidative injury in rat PC12 cells assessed as inhibition of MDA production pretreated for 24 hrs followed by H2O2 challenge measured after 16 hrs; format: functional, cell-based
PC-12 [12] = test: Cytoprotective activity against H2O2-induced oxidative injury in rat PC12 cells assessed as reduction in intracellular reactive oxygen species formation pretreated for 24 hrs followed by H2O2 challenge measured after 3 hrs by DCFH-DA dye based fluorescence microscopic analysis; format: functional, cell-based
[13] = biological target: T1, KEAP1/NRF2 (Rattus norvegicus); test: Inhibition of Keap1/Nrf2 signaling in rat PC12 cells assessed as induction of nuclear translocation at 10 uM after 6 hrs by DAPI staining based fluorescence microscopic analysis; format: cell-based
[14] = biological target: T1, KEAP1/NRF2 (Rattus norvegicus); test: Inhibition of Keap1/Nrf2 signaling in rat PC12 cells assessed as induction of ARE by measuring increase in HO-1 expression after 24 hrs by Western blot analysis; format: cell-based
PC-12 [15] = test: Cytoprotective activity against H2O2-induced oxidative injury in rat PC12 cells harboring siRNA assessed as increase in cell viability at 10 uM pretreated for 24 hrs followed by H2O2 challenge measured after 24 hrs by MTT assay; format: functional, cell-based
PC-12 [16] = test: Cytoprotective activity against H2O2-induced oxidative injury in rat PC12 cells harboring siRNA assessed as increase in colony formation at 2 uM pretreated for 24 hrs followed by H2O2 challenge by crystal violet staining based assay; format: functional, cell-based
PC-12 [17] = test: Cytoprotective activity against H2O2-induced oxidative injury in rat PC12 cells harboring Nrf2 siRNA assessed as increase in cell viability at 10 uM pretreated for 24 hrs followed by H2O2 challenge measured after 24 hrs by MTT assay; format: functional, cell-based
PC-12 [18] = test: Cytoprotective activity against H2O2-induced oxidative injury in rat PC12 cells harboring Nrf2 siRNA assessed as increase in colony formation at 2 uM pretreated for 24 hrs followed by H2O2 challenge by crystal violet staining based assay; format: functional, cell-based

Compound	Activity (PC-12 [6])	Activity (PC-12 [7])	further results
CC(C)(C)c1cc(O)ccc1O			Activity (PC-12 [1]): Active; Activity (PC-12 [2]): Active; inhibition (PC-12 [3]): Active; Activity (PC-12 [4]): Active; inhibition [5]: Active
CC(C)CCC[C@@H](C)[C@H]1CC[C@H]2[C@@H]3C(=O)C=C4C[C@@H](O)CC[C@]4(C)[C@H]3CC[C@]12C	Active		
C=C(CC[C@@H](C)[C@H]1CC[C@H]2[C@@H]3[C@H](O)C=C4C[C@@H](O)CC[C@]4(COC(C)=O)[C@H]3CC[C@]12C)C(C)C		Non-Toxic	Activity (PC-12 [8]): 70%; Activity (PC-12 [1]): inactive
CC(C)CCC[C@@H](C)[C@H]1CC[C@H]2[C@@H]3[C@H](O)CC4=CC(=O)CC[C@]4(C)[C@H]3CC[C@]12C	Active		
C=C(CC[C@@H](C)[C@H]1CC[C@H]2[C@@H]3C(=O)[C@H]4O[C@]45C[C@@H](O)CC[C@]5(COC(C)=O)[C@H]3CC[C@]12C)C(C)C	inactive	Non-Toxic	
C=C(CC[C@@H](C)[C@H]1CC[C@H]2[C@@H]3C(=O)[C@H]4O[C@]45C[C@@H](O)CC[C@]5(COC(C)=O)[C@H]3[C@H](OC(C)=O)C[C@]12C)C(C)C	inactive	Non-Toxic	
CC(=O)O[C@H]1C=C2C[C@@H](O)CC[C@]2(CO)[C@H]2CC[C@]3(C)[C@@H]([C@H](C)/C=C/CC(C)C)CC[C@H]3[C@H]12	inactive	Non-Toxic	
C=C(CC[C@@H](C)[C@H]1CC[C@H]2[C@@H]3C(=O)[C@H]4O[C@]45C[C@@H](O)CC[C@]5(CO)[C@H]3CC[C@]12C)C(C)C	inactive	Non-Toxic	
C=C(/C=C/[C@@H](C)[C@H]1CC[C@H]2[C@@H]3[C@@H](OC(C)=O)C=C4C[C@@H](O)CC[C@]4(CO)[C@H]3CC[C@]12C)C(C)C	inactive	Non-Toxic	
C=C(CC[C@@H](C)[C@H]1CC[C@H]2[C@@H]3[C@@H](OC(C)=O)C=C4C[C@@H](O)CC[C@]4(CO)[C@H]3CC[C@]12C)C(C)C	inactive	Non-Toxic	
C=C(CC[C@@H](C)[C@H]1CC[C@H]2[C@@H]3CC=C4C[C@@H](O)CC[C@]4(CO)[C@H]3CC[C@]12C)C(C)C	inactive	Non-Toxic	
CC(=O)O[C@H]1C=C2C[C@@H](O)CC[C@]2(CO)[C@H]2CC[C@]3(C)[C@@H]([C@H](C)CCCC(C)C)CC[C@H]3[C@H]12	inactive	Non-Toxic	
C=C(CC[C@@H](C)[C@H]1CC[C@H]2[C@@H]3C(=O)C=C4C[C@@H](O)CC[C@]4(COC(C)=O)[C@H]3CC[C@]12C)C(C)C		Non-Toxic	Activity (PC-12 [8]): 70%; Activity (PC-12 [1]): Active; Activity (PC-12 [9]): Active; Activity (PC-12 [10]): Dose-dependent effect; inhibition (PC-12 [11]): Dose-dependent effect; Activity (PC-12 [12]): Dose-dependent effect; inhibition [13]: Active; inhibition [14]: Dose-dependent effect; Activity (PC-12 [15]): Active; Activity (PC-12 [16]): Active; Activity (PC-12 [17]): inactive; Activity (PC-12 [18]): inactive
C=C(/C=C/[C@@H](C)[C@H]1CC[C@H]2[C@@H]3C(=O)[C@H]4O[C@]45C[C@@H](O)CC[C@]5(COC(C)=O)[C@H]3CC[C@]12C)C(C)C	inactive	Non-Toxic	
C=C(CC[C@@H](C)[C@H]1CC[C@H]2[C@@H]3[C@@H](O)C=C4C[C@@H](O)CC[C@]4(C)[C@H]3CC[C@]12C)C(C)C	inactive	Non-Toxic	
C=C(/C=C/[C@@H](C)[C@H]1CC[C@@H]2[C@]1(C)C[C@H](O)[C@@H]1[C@@]3(C)C[C@H](O)[C@H](O)[C@@H](C)[C@@H]3CC(=O)[C@@]21O)C(C)C	inactive	Non-Toxic	
C=C(/C=C/[C@@H](C)[C@H]1CC[C@@H]2[C@]1(C)C[C@H](O)[C@@H]1[C@@]3(C)C[C@H](O)[C@H](OC(C)=O)[C@@H](C)[C@@H]3CC(=O)[C@@]21O)C(C)C	inactive	Non-Toxic	
C=C(CC[C@@H](C)[C@H]1CC[C@@H]2[C@]1(C)C[C@H](O)[C@@H]1[C@@]3(C)C[C@H](O)[C@H](O)[C@@H](C)[C@@H]3CC(=O)[C@@]21O)C(C)C	inactive	Non-Toxic	
